Laboratory results published in patent publication US7622500B2, “Antiparasitic agents” (Pfizer Limited, priority 2007, dated 2009).

Tested on: Haemonchus contortus L3
Assay: Haemonchus contortus L3 (HcL3) in vitro test
Assay type: cell-based
Conditions: minimum effective dose, exsheathed L3 larvae, 37° C., observed 2 hrs to 4 days, dose responses 100-0.1 μg/ml, n=2, read-out: H.c. (L3) MED
Experimental: The Haemonchus contortus L3 (HcL3) test is used to measure the biological activities of the compounds claimed. The assay involves in vitro testing against H. contortus conducted according to the following general procedure.
HcL3 larvae were collected from infected sheep and, after cleaning, stored in water at 12° C. for up to one month. Viable infective larvae were exsheathed using 10% hypochlorite in Glucose Tyrodes balanced salt solution containing antibiotics and resuspended in basal medium (20 g/l bacto-tryptone, 5 g/l yeast extract, 57 g/l glucose, 0.8 g/l di-Potassium hydrogen orthophosphate, 0.8 g/l potassium dihydrogen orthophosphate and […] Hepes with antibiotics). 95 μl worm suspension was added to each well of a 96 well plate.
Test compounds were dissolved in dimethylsulfoxide to give a working stock solution of 20 mg/ml. The stock concentration was diluted 1:10 in Basal media to give 2.0 mg/ml (10% DMSO). 5 μl of the stock compound solution was added to the worm suspension to give a final concentration of 100 μg/ml. Plates were sealed with pressure sensitive film and incubated at 37° C. Observations were made 2 hrs, 24 hrs, 48 hrs, 72 hrs and 4 days post-treatment using an inverted microscope. Activity was recorded if a significant proportion of the worms were dead or adversely affected by the compound when compared to the control well containing 1% DMSO. Compounds were initially tested at 100 μg/ml, wherefrom relevant dose responses (100, 30, 10, 3, 1, 0.3, 0.1 μg/ml) were conducted in duplicate experiments to generate n=2. Data was recorded as minimum effective dose.

Structure (SMILES) | minimal effective concentration [µg/mL]
CC(C#N)(NC(=O)c1ccc(OC(F)(F)F)cc1)C1Cc2cccc(C#N)c2O1 (centres unmarked) [Example 6, N-[1-Cyano-1-(7-cyano-2,3-dihydro-1-benzofuran-2-yl)ethyl]-4-(trifluoromethoxy)benzamide] | 10
CC(C#N)(NC(=O)c1ccc(S(F)(F)(F)(F)F)cc1)C1Cc2cc(C#N)cc(Cl)c2O1 (centres unmarked) [Example 9, N-[1-(7-Chloro-5-cyano-2,3-dihydro-1-benzofuran-2-yl)-1-cyanoethyl]-4-(pentafluorothio)benzamide] | < 1
CC(C#N)(NC(=O)c1ccc(OC(F)(F)F)cc1)C1Cc2ccccc2O1 (centres unmarked) [Example 3, N-[1-Cyano-1-(2,3-dihydro-1-benzofuran-2-yl)ethyl]-4-(trifluoromethoxy)benzamide] | 30
CC(C#N)(NC(=O)c1ccc(OC(F)(F)F)cc1)C1Cc2cc(C#N)cc(Cl)c2O1 (centres unmarked) [Example 8, N-[1-(7-Chloro-5-cyano-2,3-dihydro-1-benzofuran-2-yl)-1-cyanoethyl]-4-(trifluoromethoxy)benzamide] | < 1
CC(C#N)(NC(=O)c1ccc(OC(F)(F)F)cc1)C1Cc2cc(C#N)ccc2O1 (centres unmarked) [Example 1a, N-[1-Cyano-1-(5-cyano-2,3-dihydro-1-benzofuran-2-yl)ethyl]-4-(trifluoromethoxy)benzamide] | 3
CC(C#N)(NC(=O)c1ccc(SC(F)(F)F)cc1)C1Cc2cc(C#N)ccc2O1 (centres unmarked) [Example 2, N-[1-Cyano-1-(5-cyano-2,3-dihydro-1-benzofuran-2-yl)ethyl]-4-[(trifluoromethyl)thio]benzamide] | 3
CC(C#N)(NC(=O)c1ccc(SC(F)(F)F)cc1)C1Cc2cccc(C#N)c2O1 (centres unmarked) [Example 7, N-[1-Cyano-1-(7-cyano-2,3-dihydro-1-benzofuran-2-yl)ethyl]-4-[(trifluoromethyl)thio]benzamide] | 10
CC(C#N)(NC(=O)c1ccc(C(F)(F)F)cc1)C1Cc2cc(Cl)ccc2O1 (centres unmarked) [Example 5, N-[1-(5-Chloro-2,3-dihydro-1-benzofuran-2-yl)-1-cyanoethyl]-4-(trifluoromethyl)benzamide] | 30
